Source: publication PMC11885754, “Engineered phenylalanine hydroxylase coupled with an effective cofactor synthesis and regeneration system for high-yield production of 5-hydroxytryptophan” (Bioresources and Bioprocessing, 2025)

Biological target: T1, XcPAH (Xanthomonas campestris, UniProt Q8PE27)
T1 construct: gene pah; full length 296 aa, synthesized gene in pET30a (BamHI/XhoI) co-expressed with CvPCD and EcFolM in E. coli BL21(DE3)-derived strain TRP1
T1 sequence (Q8PE27 1-296): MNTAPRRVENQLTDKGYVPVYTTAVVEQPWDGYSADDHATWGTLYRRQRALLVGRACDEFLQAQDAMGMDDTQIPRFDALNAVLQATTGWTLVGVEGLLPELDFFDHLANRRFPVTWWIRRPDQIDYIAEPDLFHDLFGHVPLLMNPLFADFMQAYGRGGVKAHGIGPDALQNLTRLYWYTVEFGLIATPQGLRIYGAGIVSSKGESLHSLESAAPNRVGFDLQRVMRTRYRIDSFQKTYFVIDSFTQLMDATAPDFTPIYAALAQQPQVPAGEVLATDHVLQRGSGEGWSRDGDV
Test: whole-cell conversion of L-Phe to L-Tyr, HPLC
Format: cell-based
Details: E. coli TRP1 cells, 10 mM L-Phe, endogenous MH4 with CvPCD-EcFolM regeneration, 25 °C, 24 h, pH about 7.0

N[C@@H](Cc1ccccc1)C(=O)O [L-Phe]
whole-cell conversion of L-Phe to L-Tyr, HPLC: (TRP1-XC1 and TRP1-CT1) were capable of converting L-Phe into L-Tyr
